Experimental data reported in patent publication US7326721B2 (Hypnion, Inc., priority 2003, dated 2008).

How the values were obtained:
[1] = system: Glutamic Acid Decarboxylase; assay: Table 12 panel: Glutamic Acid Decarboxylase; type: biochemical; settings: 1.0E−6, average N=2
From the text: (§1) The percentage inhibition (average; N=2) for these receptors is shown below in Table 12.
(§2) Values in Table 12 are expressed as percentage inhibition of specific binding, and these values represent the average of replicate tubes at each of the concentrations tested.

Vasopressin 1 = Vasopressin 1 (Homo sapiens, UniProt P37288); assay: Table 12 panel: Vasopressin 1; settings: 1.0E−6, average N=2, read-out: percentage inhibition of specific binding
From the text: as §1, §2

[2] = system: Corticotropin Releasing Factor, Non-selective; assay: Table 12 panel: CRF; type: binding; settings: 1.0E−6, average N=2
From the text: as §1, §2

Oxytocin = Oxytocin (Homo sapiens, UniProt P30559); assay: Table 12 panel: Oxytocin; settings: 1.0E−6, average N=2, read-out: percentage inhibition of specific binding
From the text: as §1, §2

Leukotriene, LTD4 = Leukotriene, LTD4 (Homo sapiens, UniProt Q9Y271); assay: Table 12 panel: Leukotriene, LTD4; settings: 1.0E−6, average N=2, read-out: percentage inhibition of specific binding
From the text: as §1, §2

Galanin, Non-Selective = assay: Table 12 panel: Galanin; type: binding; settings: 1.0E−6, average N=2
From the text: as §1, §2

Sodium, Site 2 = assay: Table 12 panel: Sodium, Site 2; type: binding; settings: 1.0E−6, average N=2
From the text: as §1, §2

Histamine, H3 = Histamine, H3 (Homo sapiens, UniProt Q9Y5N1); assay: biochemical; settings: read-out: percentage inhibition of specific binding
[3] = molecular target: Neurokinin, NK2 (NKA) (hr) (Homo sapiens, UniProt P21452); assay: Table 12 panel: NK2; settings: 1.0E−6, average N=2, read-out: percentage inhibition of specific binding
From the text: as §1, §2

Opioid, Non-selective = assay: Table 12 panel: Opioid; type: binding; settings: 1.0E−6, average N=2
From the text: as §1, §2

Neurokinin, NK3 (NKB) = Neurokinin, NK3 (NKB) (Homo sapiens, UniProt P29371); assay: Table 12 panel: NK3; settings: 1.0E−6, average N=2, read-out: percentage inhibition of specific binding
From the text: as §1, §2

Melatonin, Non-selective = assay: Table 12 panel: Melatonin; type: binding; settings: 1.0E−6, average N=2
From the text: as §1, §2

[4] = molecular target: Norepinephrine Transporter (Homo sapiens, UniProt P23975); assay: Table 12 panel: Norepinephrine Transporter; settings: 1.0E−6, average N=2, read-out: percentage inhibition of specific binding
From the text: as §1, §2

hERG [5] = molecular target: T1, hERG (Homo sapiens, UniProt Q12809); assay: Table 12 panel: hERG binding; set-up: expressed in transfected cells; settings: human recombinant hERG potassium channel (binding assay), I[Kr] (hERG) (hr), 1.0E−6, average N=2, read-out: percentage inhibition of specific binding
From the text: as §1, §2

[6] = molecular target: Glutamate, NMDA, Glycine (Stry-insens Site) (Homo sapiens, UniProt Q05586); assay: Table 12 panel: Glutamate, NMDA, Glycine; settings: 1.0E−6, average N=2, read-out: percentage inhibition of specific binding
From the text: as §1, §2

[7] = system: Potassium Channel, ATP-Sensitive; assay: Table 12 panel: Potassium Channel, ATP-Sensitive; type: binding; settings: 1.0E−6, average N=2
From the text: as §1, §2

Dopamine, Non-selective = assay: Table 12 panel: Dopamine, Non-selective; type: binding; settings: 1.0E−6, average N=2
From the text: as §1, §2

Glutamate, Kainate Site = assay: Table 12 panel: Glutamate, Kainate; type: binding; settings: 1.0E−6, average N=2
From the text: as §1, §2

[8] = molecular target: Cholecystokinin, CCK1 (CCKA) (Homo sapiens, UniProt P32238); assay: Table 12 panel: CCK1; settings: 1.0E−6, average N=2, read-out: percentage inhibition of specific binding
From the text: as §1, §2

[9] = molecular target: GABA A, BDZ, alpha 1 site (Homo sapiens, UniProt P14867+P18507); assay: Table 12 panel: GABA A, BDZ; settings: 1.0E−6, average N=2, read-out: percentage inhibition of specific binding
From the text: as §1, §2

[10] = system: Muscarinic, Non-selective, Peripheral; assay: Table 12 panel: Muscarinic, Peripheral; type: binding; settings: 1.0E−6, average N=2
From the text: as §1, §2

[11] = Urinary excretion in animal species; type: in vivo; settings: animal species administered HY2901
hERG [12] = molecular target: T1, hERG; assay: in vitro; settings: pH 7.4
CYP 3A = assay: Cytochrome P450 inhibition: CYP 3A; type: in vitro ADME; settings: human microsomal preparation
Procedure: (§3) Cytochrome P450 inhibition was studied with HY2901 in vitro. […] In addition, the in vitro rate of metabolism in rat, dog, monkey, and human hepatocyte cultures was determined for HY2901.

CYP 1A2 = molecular target: T2, CYP 1A2 (Homo sapiens, UniProt P05177); assay: Cytochrome P450 inhibition, human microsomal preparation: CYP 1A2; type: in vitro ADME
T2 construct: in a commercially available human microsomal preparation; purchased; host or cells: human microsomal preparation
Procedure: as §3

T1 sequence (Q12809 whole entry): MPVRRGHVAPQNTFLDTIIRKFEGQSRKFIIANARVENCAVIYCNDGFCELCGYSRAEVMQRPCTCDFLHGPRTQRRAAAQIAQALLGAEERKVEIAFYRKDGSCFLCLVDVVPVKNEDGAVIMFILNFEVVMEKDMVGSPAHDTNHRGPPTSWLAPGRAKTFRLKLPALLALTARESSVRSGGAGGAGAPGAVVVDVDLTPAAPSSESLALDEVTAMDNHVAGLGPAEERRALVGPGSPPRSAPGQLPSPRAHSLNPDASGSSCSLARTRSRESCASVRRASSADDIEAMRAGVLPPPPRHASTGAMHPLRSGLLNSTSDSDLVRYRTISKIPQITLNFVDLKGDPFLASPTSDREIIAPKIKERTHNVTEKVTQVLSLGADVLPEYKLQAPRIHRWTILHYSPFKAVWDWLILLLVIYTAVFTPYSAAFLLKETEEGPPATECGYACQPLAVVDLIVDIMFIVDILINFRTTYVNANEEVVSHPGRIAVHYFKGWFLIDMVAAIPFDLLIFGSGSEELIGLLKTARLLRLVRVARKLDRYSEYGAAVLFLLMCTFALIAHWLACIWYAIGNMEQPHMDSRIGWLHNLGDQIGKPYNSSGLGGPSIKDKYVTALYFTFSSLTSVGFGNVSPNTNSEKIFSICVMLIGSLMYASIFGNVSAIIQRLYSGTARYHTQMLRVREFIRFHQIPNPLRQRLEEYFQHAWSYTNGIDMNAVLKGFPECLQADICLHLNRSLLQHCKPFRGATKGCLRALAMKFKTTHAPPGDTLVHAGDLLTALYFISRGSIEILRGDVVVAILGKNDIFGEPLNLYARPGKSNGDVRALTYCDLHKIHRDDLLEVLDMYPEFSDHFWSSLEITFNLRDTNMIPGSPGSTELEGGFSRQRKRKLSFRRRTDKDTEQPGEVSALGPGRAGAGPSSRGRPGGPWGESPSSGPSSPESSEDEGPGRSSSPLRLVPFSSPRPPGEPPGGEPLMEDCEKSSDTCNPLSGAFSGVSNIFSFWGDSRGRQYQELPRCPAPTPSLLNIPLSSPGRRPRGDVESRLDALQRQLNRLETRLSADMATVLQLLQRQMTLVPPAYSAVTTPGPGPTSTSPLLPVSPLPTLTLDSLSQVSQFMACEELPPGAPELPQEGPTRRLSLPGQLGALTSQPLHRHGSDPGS
Chain of Neurokinin, NK2 (NKA) (hr) (P21452 whole entry): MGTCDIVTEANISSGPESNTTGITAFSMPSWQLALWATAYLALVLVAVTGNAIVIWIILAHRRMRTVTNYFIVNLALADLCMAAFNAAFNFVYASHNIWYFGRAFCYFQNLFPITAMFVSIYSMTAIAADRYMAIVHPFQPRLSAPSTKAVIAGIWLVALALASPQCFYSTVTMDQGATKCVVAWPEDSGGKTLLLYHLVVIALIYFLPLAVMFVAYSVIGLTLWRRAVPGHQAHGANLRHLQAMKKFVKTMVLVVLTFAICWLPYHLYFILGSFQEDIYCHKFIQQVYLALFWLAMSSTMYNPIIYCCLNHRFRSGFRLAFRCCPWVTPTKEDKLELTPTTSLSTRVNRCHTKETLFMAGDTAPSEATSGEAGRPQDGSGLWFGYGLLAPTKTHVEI
T2 sequence (P05177 whole entry): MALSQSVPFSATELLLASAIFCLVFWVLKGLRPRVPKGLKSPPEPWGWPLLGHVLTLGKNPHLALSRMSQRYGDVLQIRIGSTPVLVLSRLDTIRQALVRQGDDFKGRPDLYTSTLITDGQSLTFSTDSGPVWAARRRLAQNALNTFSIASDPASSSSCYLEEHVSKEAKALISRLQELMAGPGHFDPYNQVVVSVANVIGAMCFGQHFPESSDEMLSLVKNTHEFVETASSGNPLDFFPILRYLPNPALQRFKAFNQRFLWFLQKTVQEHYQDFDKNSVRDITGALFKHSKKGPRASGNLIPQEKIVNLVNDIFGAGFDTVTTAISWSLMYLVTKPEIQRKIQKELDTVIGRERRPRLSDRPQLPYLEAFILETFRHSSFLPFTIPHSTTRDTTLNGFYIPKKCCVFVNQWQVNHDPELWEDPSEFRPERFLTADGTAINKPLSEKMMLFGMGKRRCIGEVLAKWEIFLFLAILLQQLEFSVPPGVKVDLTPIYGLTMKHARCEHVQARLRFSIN
Chain of GABA A, BDZ, alpha 1 site (P14867 28-456): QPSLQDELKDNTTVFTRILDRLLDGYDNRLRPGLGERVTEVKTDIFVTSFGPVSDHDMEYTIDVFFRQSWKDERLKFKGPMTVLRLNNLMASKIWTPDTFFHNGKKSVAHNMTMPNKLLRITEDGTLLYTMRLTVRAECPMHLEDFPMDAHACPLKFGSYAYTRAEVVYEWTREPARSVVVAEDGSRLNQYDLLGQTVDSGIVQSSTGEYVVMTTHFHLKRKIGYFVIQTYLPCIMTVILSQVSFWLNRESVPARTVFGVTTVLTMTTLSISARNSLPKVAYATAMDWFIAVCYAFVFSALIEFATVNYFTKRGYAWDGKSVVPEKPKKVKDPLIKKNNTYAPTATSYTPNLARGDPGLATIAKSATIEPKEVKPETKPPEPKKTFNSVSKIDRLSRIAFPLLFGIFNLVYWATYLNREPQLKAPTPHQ
Chain of GABA A, BDZ, alpha 1 site (P18507 40-467 limits assumed): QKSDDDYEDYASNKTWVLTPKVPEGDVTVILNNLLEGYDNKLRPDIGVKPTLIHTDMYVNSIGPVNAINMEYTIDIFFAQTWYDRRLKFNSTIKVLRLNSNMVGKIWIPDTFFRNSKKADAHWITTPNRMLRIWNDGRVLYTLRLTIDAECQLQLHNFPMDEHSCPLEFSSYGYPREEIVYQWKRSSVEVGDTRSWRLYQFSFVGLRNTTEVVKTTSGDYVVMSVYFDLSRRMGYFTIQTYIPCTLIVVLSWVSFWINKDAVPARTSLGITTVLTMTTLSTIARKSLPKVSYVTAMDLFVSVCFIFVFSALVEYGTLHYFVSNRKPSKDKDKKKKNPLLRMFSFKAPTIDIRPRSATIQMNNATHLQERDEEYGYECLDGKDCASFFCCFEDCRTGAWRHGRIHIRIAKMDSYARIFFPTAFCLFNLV
Chain of GABA A, BDZ, alpha 1 site (P47870 25-512 partner limits assumed): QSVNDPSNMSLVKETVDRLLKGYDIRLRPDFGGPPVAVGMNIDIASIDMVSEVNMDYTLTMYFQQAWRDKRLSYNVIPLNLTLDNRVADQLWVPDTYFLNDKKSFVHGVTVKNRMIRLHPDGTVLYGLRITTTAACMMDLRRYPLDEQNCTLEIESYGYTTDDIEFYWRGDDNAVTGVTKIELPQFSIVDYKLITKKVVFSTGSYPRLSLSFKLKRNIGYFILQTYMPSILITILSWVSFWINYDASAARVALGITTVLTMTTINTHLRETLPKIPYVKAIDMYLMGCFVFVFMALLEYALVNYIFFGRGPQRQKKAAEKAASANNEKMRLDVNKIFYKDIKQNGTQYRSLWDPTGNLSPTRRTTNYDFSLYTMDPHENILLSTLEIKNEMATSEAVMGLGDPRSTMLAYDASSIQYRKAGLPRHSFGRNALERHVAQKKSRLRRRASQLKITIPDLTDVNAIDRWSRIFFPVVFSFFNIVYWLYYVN
Chain of Vasopressin 1 (P37288 whole entry): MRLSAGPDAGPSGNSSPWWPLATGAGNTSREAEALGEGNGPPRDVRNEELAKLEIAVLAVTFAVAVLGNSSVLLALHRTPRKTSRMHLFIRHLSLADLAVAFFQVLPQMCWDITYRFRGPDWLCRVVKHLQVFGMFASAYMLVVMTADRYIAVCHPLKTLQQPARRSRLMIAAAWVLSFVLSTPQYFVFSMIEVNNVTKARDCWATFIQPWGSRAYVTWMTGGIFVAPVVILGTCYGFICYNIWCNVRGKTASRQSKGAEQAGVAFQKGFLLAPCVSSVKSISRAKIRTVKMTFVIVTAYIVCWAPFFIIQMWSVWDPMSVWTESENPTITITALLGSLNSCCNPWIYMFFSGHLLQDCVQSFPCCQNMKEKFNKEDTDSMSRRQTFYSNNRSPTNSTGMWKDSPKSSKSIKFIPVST
Chain of Histamine, H3 (Q9Y5N1 whole entry): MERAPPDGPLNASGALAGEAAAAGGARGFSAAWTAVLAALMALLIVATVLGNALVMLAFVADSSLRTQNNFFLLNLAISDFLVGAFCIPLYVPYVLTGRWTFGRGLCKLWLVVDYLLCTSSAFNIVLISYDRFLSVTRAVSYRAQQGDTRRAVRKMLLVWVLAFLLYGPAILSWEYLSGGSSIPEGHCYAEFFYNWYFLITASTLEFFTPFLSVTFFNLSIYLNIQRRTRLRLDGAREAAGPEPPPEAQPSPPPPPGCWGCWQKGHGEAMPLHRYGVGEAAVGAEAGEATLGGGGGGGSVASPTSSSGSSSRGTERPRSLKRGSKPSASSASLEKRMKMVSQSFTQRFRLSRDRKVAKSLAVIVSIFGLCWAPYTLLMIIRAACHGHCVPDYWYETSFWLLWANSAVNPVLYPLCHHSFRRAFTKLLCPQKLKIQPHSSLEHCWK
Chain of Norepinephrine Transporter (P23975 whole entry, species assumed): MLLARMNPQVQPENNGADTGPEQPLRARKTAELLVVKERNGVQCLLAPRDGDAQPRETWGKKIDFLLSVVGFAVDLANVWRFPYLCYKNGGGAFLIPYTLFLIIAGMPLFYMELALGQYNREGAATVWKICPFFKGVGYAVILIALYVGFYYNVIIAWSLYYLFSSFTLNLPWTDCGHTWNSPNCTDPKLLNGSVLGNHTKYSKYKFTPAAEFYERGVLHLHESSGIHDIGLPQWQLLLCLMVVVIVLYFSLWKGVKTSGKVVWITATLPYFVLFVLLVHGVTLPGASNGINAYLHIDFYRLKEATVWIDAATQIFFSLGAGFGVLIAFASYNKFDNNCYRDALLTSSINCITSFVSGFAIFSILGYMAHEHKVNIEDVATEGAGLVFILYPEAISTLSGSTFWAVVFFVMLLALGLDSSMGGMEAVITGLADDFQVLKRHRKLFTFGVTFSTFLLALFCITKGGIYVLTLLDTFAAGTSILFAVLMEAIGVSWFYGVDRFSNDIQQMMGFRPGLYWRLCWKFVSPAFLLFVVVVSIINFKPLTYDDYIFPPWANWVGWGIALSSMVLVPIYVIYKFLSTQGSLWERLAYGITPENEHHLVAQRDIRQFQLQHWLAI

## CC(CC(=O)O)N1CCC(=C2c3ccc(F)cc3COc3ccccc32)CC1 (centres unmarked) [Compound 37]
[1]
  percentage inhibition: −4.76%
Vasopressin 1
  inhibition at 1 µM: 11.6%
[2]
  percentage inhibition of specific binding: 4.31%
Oxytocin
  inhibition at 1 µM: -5.82%
Leukotriene, LTD4
  inhibition at 1 µM: -20.1%
Galanin, Non-Selective
  percentage inhibition of specific binding: −5.07%
Sodium, Site 2
  percentage inhibition of specific binding: −4.12%
Histamine, H3
  inhibition at 1 µM: 5.11%
[3]
  inhibition at 1 µM: -4.17%
Opioid, Non-selective
  percentage inhibition of specific binding: −9.30%
Neurokinin, NK3 (NKB)
  inhibition at 1 µM: -0.23%
Melatonin, Non-selective
  percentage inhibition of specific binding: 11.29%
[4]
  inhibition at 1 µM: 19.5%
hERG [5]
  inhibition at 1 µM: -5.23%
[6]
  inhibition at 1 µM: -12.5%
[7]
  percentage inhibition of specific binding: 26.16%
Dopamine, Non-selective
  percentage inhibition of specific binding: 21.10%
Glutamate, Kainate Site
  percentage inhibition of specific binding: 1.51%
[8]
  inhibition at 1 µM: 8.92%
[9]
  inhibition at 1 µM: -7.13%
[10]
  percentage inhibition of specific binding: 5.37%

## CC(C)(CN1CCC(=C2c3ccc(F)cc3COc3ccccc32)CC1)C(=O)O [Compound 49a]
[11]
  unchanged drug and metabolites in urine: has been found in the urine
hERG [12]
  IC50: 93 µM
  inhibition at 0.01 µM: 10%
CYP 3A
  inhibition of CYP 3A activity: did not inhibit
CYP 1A2
  inhibition of CYP 1A2 activity: did not inhibit
